Data as given in paper PMC10044725, “Antioxidant, Anti-Inflammatory and Anti-Diabetic Activities of Tectona grandis Methanolic Extracts, Fractions, and Isolated Compounds” (Antioxidants, 2023).
pIC50: −log10 of the molar value. Marks after values point to notes of the source that are not given here.

Tests used:
[1] = system: α-glucosidase; experiment: α-Glucosidase inhibition assay (pNPG); format: biochemical
Description: The inhibitory effect on α-glucosidase was measured according to the previous report method with slight modifications. The 20 mM sample dissolved in DMSO was diluted to 50 μM in PBS, 10 μL sample was mixed with 50 μL of 0.1 μ/mL α-glucosidase solution in 0.1 M phosphate buffer (pH 6.5) in a 96-well microplate and 10 μL PBS was used as a blank control. The mixture was incubated at 37 °C for 10 min before adding 40 µL of 5 mM 4-nitrophenyl-α-D-glucopyranoside to each well. After 30 min of incubation at 37 °C, the reaction was terminated by adding 50 μL of 0.1 M Na2CO3 to this mixture. The released 4-nitrophenol absorbance measurements were carried out using a microplate reader (SpectraMax190, USA) at 405 nm.

[2] = system: IL-1β; experiment: IL-1β secretion in LPS-stimulated RAW 264.7 macrophages (ELISA); format: cell-based, mouse; details: 40 µM, LPS 1 µg/mL, 48 h, vs model control (p < 0.0001)
Description: In order to increase cytokine production, macrophages were treated with LPS at a final concentration of 1 µg/mL, and then with T. grandis compounds at 40 µM. The compounds were solubilized in DMEM medium containing 0.1% DMSO. Dexamethasone was employed as a positive control (5 µg/mL). A centrifuge was used to separate the supernatant from the cells after 48 h of incubation, with three replicates per group. Quantification of TNF-α, IL-1β and IL-6 secretion was achieved by following the ELISA manufacturer's instructions. Then, absorbance was measured at 450 nm. Relative TNF-α, IL-1β and IL-6 expression was calculated according to Equation (4). Following the inflammatory factor test, cell viability was detected by CellTiter96® Aqueous One Solution Cell Proliferation Assay. Then, 20 μL/well CellTiter96® Aqueous One Solution Cell Growth Assay reagent was added to the plate and incubated at 37 °C for 8 h, absorbance was measured at […] and relative cell viability was calculated according to Equation (5). Relative content of inflammatory cytokines (%) = (A1/A2)/A3 × 100%(4) where A1 is the concentrations value of inflammatory cytokines of each group, A2 is the relative cell viability of each group (model group is 100) and A3 is the concentration of inflammatory cytokines of model group. Cell viability rate (%) = B1/B2 × 100%(5) where B1 is the OD value of each fraction group or positive control group and B2 is the OD value of the model control.

[3] = system: pBR322 DNA; experiment: Prevention of AAPH-induced DNA oxidative damage; details: AAPH 20 mM; p < 0.0001 vs model
Description: The effects of T. grandis methanolic extract, different fractions and its compounds 15, 19 and 23 on the prevention of DNA oxidative damage were carried out using the method of Han et al.. Initially, 8 μL pBR322 DNA (50 μg/mL) in PBS (0.1 M, pH 6.8) was mixed with different concentrations of T. grandis fractions and its compounds (12 μL) and incubated in water at 37 °C for 30 min. Then, 5 μL AAPH (20 mM) was added to the mixture and the reaction continued for 60 min. The control group used the same volume of PBS (0.1 M, pH 6.8) to replace AAPH. The pre-treated samples were mixed with 5 × DNA loading buffer, and the mixture (8 μL) was taken for 1.0% agarose gel electrophoresis for 25 min. After electrophoresis, the gels were stained with ethidium bromide for 20 min. Finally, images were taken using a DNA gel imaging system (ChampChemi 610, Beijing sage creation Co., Ltd. Beijing, China).

Inhibitory Rate (%) ([1]; at a concentration of 50 µM): 21.89 ± 3.03 ^c % | pIC50 ([1]; compounds): < 4.30
Compound: O=C(O)c1cc(O)c(O)c(O)c1 [Compound 23, gallic acid]
effect on IL-1β inflammatory factor level [2]: significant decrease | concentration at which a protective effect against DNA oxidative damage begins [3]: 0.6 mM
